The values that follow are results of earlier work, collected in US11938211B2, “Process for coloring keratinous material comprising the use of an organosilicon compound, an effect pigment, a further coloring compound and a film-forming polymer I” (Henkel AG & Co. KGaA, priority 2019, dated 2024).

Structures are written as SMILES.

For this series the following is noted: 25° C.

Take `CCN(Cc1cccc(S(=O)(=O)[O-])c1)c1ccc(C(=C2C=CC(=[N+](CC)Cc3cccc(S(=O)(=O)[O-])c3)C=C2)c2ccccc2S(=O)(=O)[O-])cc1.[Na+].[Na+]` [Acid Blue 9]: the solubility in water result was “more than 20 % by weight”.
Turning to `O=S(=O)([O-])c1ccc(N=Nc2c(O)ccc3ccccc23)cc1.[Na+]` [Acid Orange 7, sodium salt of 4-[(2-hydroxy-1-naphthyl)azo]benzene sulphonate], the solubility in water entry is “more than 7 g/L”.
Consider `Nc1cc(S(=O)(=O)[O-])cc2cc(S(=O)(=O)[O-])c(N=Nc3ccccc3)c(O)c12.[Na+].[Na+]` [Acid Red 33, disodium salt of 5-amino-4-hydroxy-3-(phenylazo)-naphthalene-2,7-disulphonate], for which the solubility in water is 2500 µg/mL.
For `O=C([O-])c1c(Cl)c(Cl)c(Cl)c(Cl)c1-c1c2c(Br)cc(=O)c(Br)c-2oc2c(Br)c(O)cc(Br)c12.O=C([O-])c1c(Cl)c(Cl)c(Cl)c(Cl)c1-c1c2c(Br)cc(=O)c(Br)c-2oc2c(Br)c(O)cc(Br)c12.[Na+].[Na+]` [Acid Red 92, disodium salt of 3,4,5,6-tetrachloro-2-(1,4,5,8-tetrabromo-6-hydroxy-3-oxoxanthen-9-yl)benzoic acid], the solubility in water entry was “greater than 10 g/L”.
In the case of `O=C([O-])C1=NN(c2ccc(S(=O)(=O)[O-])cc2)C(=O)C1N=Nc1ccc(S(=O)(=O)[O-])cc1.[Na+].[Na+].[Na+]` (centres unmarked) [Acid Yellow 23, trisodium salt of 4,5-dihydro-5-oxo-1-(4-sulfophenyl)-4-((4-sulfophenyl)azo)-1H-pyrazole-3-carboxylic acid], the “solubility in water (in words)” value is “highly soluble”.
